Measured values taken from US4962108A, “Antibacterial quinoline compounds” (Warner-Lambert Company, priority 1988, dated 1990).
In brackets after ≈: the same amount, converted by molar mass. Like-named read-outs stand apart in the source and are kept apart here.

Tests used:
Assay in all cases: in vitro antibacterial activity, microtitration dilution method
Assay type in all cases: cell-based
[1] = system: Enterobacter cloacae MA 2646
Text: (§1) The compounds of the invention display antibacterial activity when tested by the microtitration dilution method as described in Heifetz, et al, Antimicr. Agents & Chemoth., 6, 124 (1974), which is incorporated herein by reference.
(§2) By use of the above reference method, the following minimum inhibitory concentration value (MICs in μg/ml) shown in Table I were obtained for representative compounds of the invention.

Escherichia coli Vogel = conditions: read-out: minimal inhibitory concentration (MIC)
Text: as §1, §2

Proteus rettgeri M 1771 = conditions: Providencia rettgeri, M1771, read-out: minimal inhibitory concentration (MIC)
Text: as §1, §2

[2] = system: Klebsiella pneumoniae MGH-2
Text: (§3) Agents & Chemoth., 6, 124 (1974), which is incorporated herein by reference.

[3] = system: Pseudomonas aeruginosa UI-18
Text: as §3

[4] = system: Staphylococcus aureus H 228
Text: as §3

[5] = system: Staphylococcus aureus UC-76
Text: as §3

[6] = system: Streptococcus faecalis MGH-2; conditions: Enterococcus faecalis
Text: as §3

[7] = system: Streptococcus pneumoniae SV-1
Text: as §3

[8] = system: Streptococcus pyogenes C-203
Text: as §3

[9] = MA2646, in vitro, Enterobacter cloacae MA 2646, read-out: minimal inhibitory concentration (MIC)
[10] = MGH2, in vitro, Klebsiella pneumoniae MGH-2, read-out: minimal inhibitory concentration (MIC)
[11] = UI18, in vitro, Pseudomonas aeruginosa UI-18, read-out: minimal inhibitory concentration (MIC)
[12] = Staphylococcus aureus, H228, read-out: minimal inhibitory concentration (MIC)
[13] = UC76, in vitro, Staphylococcus aureus UC-76, read-out: minimal inhibitory concentration (MIC)
[14] = MGH2, read-out: minimal inhibitory concentration (MIC)
[15] = SV1, in vitro, Streptococcus pneumoniae SV-1, read-out: minimal inhibitory concentration (MIC)
[16] = C203, in vitro, Streptococcus pyogenes C-203, read-out: minimal inhibitory concentration (MIC)
[17] = H228, in vitro, Staphylococcus aureus H 228, read-out: minimal inhibitory concentration (MIC)
[18] = MGH2, in vitro, Streptococcus faecalis MGH-2, read-out: minimal inhibitory concentration (MIC)
[19] = Enterobacter cloacae, MA2646, read-out: minimal inhibitory concentration (MIC)
[20] = Klebsiella pneumoniae, MGH2, read-out: minimal inhibitory concentration (MIC)
[21] = Pseudomonas aeruginosa, UI18, read-out: minimal inhibitory concentration (MIC)
[22] = Staphylococcus aureus, UC76, read-out: minimal inhibitory concentration (MIC)

Row | Compound | MIC [1, 9] [µg/mL] | MIC (Escherichia coli Vogel) [µg/mL] | MIC (Proteus rettgeri M 1771) [µg/mL] | MIC [2, 10] [µg/mL] | MIC [3, 11] [µg/mL] | MIC [4, 12] [µg/mL] | MIC [5, 13] [µg/mL] | MIC [6, 14] [µg/mL] | MIC [7, 15] [µg/mL] | MIC [8, 16] [µg/mL] | MIC [4, 17] [µg/mL] | MIC [6, 18] [µg/mL] | MIC ([8]; Streptococcus pyogenes, C203, read-out: minimal inhibitory concentration (MIC)) [µg/mL] | MIC [1, 19] [µg/mL] | MIC [2, 20] [µg/mL] | MIC [3, 21] [µg/mL] | MIC [5, 22] [µg/mL] | MIC ([7]; Streptococcus pneumoniae, SV1, read-out: minimal inhibitory concentration (MIC)) [µg/mL]
1 | CCn1cc(C(=O)O)c(=O)c2cc(F)c(N3CC4CCCC3CN4)c(F)c21 (stereo not drawn) [Example 1, 7-(6,8-Diazabicyclo[3.2.2]non-6-yl)-1-ethyl-6,8-difluoro-1,4-dihydro-4-oxo-3-quinolinecarboxylic acid] | 0.4 (≈ 1.06 µM) | 0.4 (≈ 1.06 µM) | 0.8 (≈ 2.12 µM) | 0.8 (≈ 2.12 µM) | 3.1 (≈ 8.21 µM) | 0.2 (≈ 0.53 µM) | 0.05 (≈ 0.132 µM) | 0.8 (≈ 2.12 µM) | 0.8 (≈ 2.12 µM) | 1.6 (≈ 4.24 µM) |  |  |  |  |  |  |  | 
2 | O=C(O)c1cn(C2CC2)c2c(F)c(N3CC4CCCC3CN4)c(F)cc2c1=O (stereo not drawn) [Example 2, 1-Cyclopropyl-7-(6,8-diazabicyclo[3.2.2]non-6-yl)-6,8-difluoro-1,4-dihydro-4-oxo-3-quinolinecarboxylic acid] | 0.1 (≈ 0.257 µM) | 0.4 (≈ 1.03 µM) | 0.4 (≈ 1.03 µM) | 0.2 (≈ 0.514 µM) | 0.8 (≈ 2.05 µM) |  | 0.05 (≈ 0.128 µM) |  | 0.2 (≈ 0.514 µM) |  | 0.05 (≈ 0.128 µM) | 0.2 (≈ 0.514 µM) | 0.8 (≈ 2.05 µM) |  |  |  |  | 
3 | O=C(O)c1cn(C2CC2)c2nc(N3CC4CCCC3CN4)c(F)cc2c1=O (stereo not drawn) [Example 3, 1-cyclopropyl-7-(6,8-diazabicyclo[3.2.2]non-6-yl)-6-fluoro-1,4-dihydro-4-oxo-1,8-naphthyridine-3-carboxylic acid] |  | 0.03 (≈ 0.0806 µM) | 0.4 (≈ 1.07 µM) |  |  | 0.2 (≈ 0.537 µM) | 0.1 (≈ 0.269 µM) |  | 0.05 (≈ 0.134 µM) | 0.1 (≈ 0.269 µM) |  | 0.2 (≈ 0.537 µM) |  | 0.05 (≈ 0.134 µM) | 0.1 (≈ 0.269 µM) | 0.4 (≈ 1.07 µM) |  | 
4 | CCn1cc(C(=O)O)c(=O)c2cc(F)c(N3CC4CCCC3CN4C)c(F)c21 (stereo not drawn) [Example 4, 1-Ethyl-6,8-difluoro-1,4-dihydro-7-(8-methyl-6,8-diazabicyclo[3.2.2]non-6-yl)-4-oxo-3-quinolinecarboxylic acid] | 1.6 (≈ 4.09 µM) | 0.8 (≈ 2.04 µM) | 6.3 (≈ 16.1 µM) | 1.6 (≈ 4.09 µM) | 12.5 (≈ 31.9 µM) | 0.2 (≈ 0.511 µM) | 0.1 (≈ 0.255 µM) | 0.8 (≈ 2.04 µM) | 0.8 (≈ 2.04 µM) | 1.6 (≈ 4.09 µM) |  |  |  |  |  |  |  | 
5 | CCN[C@@H]1C[C@H]2CC[C@@H](C1)N2c1nc2c(cc1F)c(=O)c(C(=O)O)cn2C1CC1 [Example 5a, 1-cyclopropyl-7-[3-exo(ethylamino)-8-azabicyclo[3.2.1]oct-8-yl]-6-fluoro-1,4-dihydro-4-oxo-1,8-naphthyridine-3-carboxylic acid] | 0.8 (≈ 2 µM) | 0.2 (≈ 0.499 µM) | 3.1 (≈ 7.74 µM) | 0.4 (≈ 0.999 µM) | 1.6 (≈ 4 µM) | 0.2 (≈ 0.499 µM) |  |  | 0.2 (≈ 0.499 µM) | 0.4 (≈ 0.999 µM) |  | 0.4 (≈ 0.999 µM) |  |  |  |  | 0.2 (≈ 0.499 µM) | 
6 | CCN[C@H]1C[C@H]2CC[C@@H](C1)N2c1nc2c(cc1F)c(=O)c(C(=O)O)cn2C1CC1 [Example 5b, 1-Cyclopropyl-7-[3-endo(ethylamino)-8-azabicyclo[3.2.1]oct-8-yl]-6-fluoro-1,4-dihydro-4-oxo-1,8-naphthyridine-3-carboxylic acid] | 0.8 (≈ 2 µM) | 0.4 (≈ 0.999 µM) | 3.1 (≈ 7.74 µM) | 0.8 (≈ 2 µM) | 3.1 (≈ 7.74 µM) |  | 0.4 (≈ 0.999 µM) | 0.8 (≈ 2 µM) | 0.4 (≈ 0.999 µM) | 0.4 (≈ 0.999 µM) | 0.8 (≈ 2 µM) |  |  |  |  |  |  | 
7 | CCN[C@H]1C[C@H]2CC[C@@H](C1)N2c1c(F)cc2c(=O)c(C(=O)O)cn(C3CC3)c2c1F [Example 5c, 1-cyclopropyl-7-[3-endo(ethylamino)-8-azabicyclo[3.2.1]oct-8-yl]-6,8-difluoro-1,4-dihydro-4-oxo-3-quinolinecarboxylic acid] | 0.4 (≈ 0.958 µM) | 0.4 (≈ 0.958 µM) | 3.1 (≈ 7.43 µM) | 0.8 (≈ 1.92 µM) | 3.1 (≈ 7.43 µM) |  |  | 0.8 (≈ 1.92 µM) | 0.4 (≈ 0.958 µM) | 0.4 (≈ 0.958 µM) | 0.8 (≈ 1.92 µM) |  |  |  |  |  | 0.2 (≈ 0.479 µM) | 
8 | CCN[C@@H]1C[C@H]2CC[C@@H](C1)N2c1c(F)cc2c(=O)c(C(=O)O)cn(C3CC3)c2c1F [Example 5d, 1-cyclopropyl-7-[3-exo(ethylamino)-8-azabicyclo[3.2.1]oct-8-yl]-6,8-difluoro-1,4-dihydro-4-oxo-3-quinolinecarboxylic acid] | 0.2 (≈ 0.479 µM) | 0.2 (≈ 0.479 µM) | 1.6 (≈ 3.83 µM) | 0.4 (≈ 0.958 µM) | 3.1 (≈ 7.43 µM) | 0.2 (≈ 0.479 µM) | 0.1 (≈ 0.24 µM) |  | 0.1 (≈ 0.24 µM) | 0.1 (≈ 0.24 µM) |  | 0.2 (≈ 0.479 µM) |  |  |  |  |  | 
9 | CCN[C@@H]1C[C@H]2CC[C@@H](C1)N2c1cc2c(cc1F)c(=O)c(C(=O)O)cn2C1CC1 [Example 5e, 1-cyclopropyl-7-[3-exo(ethylamino)-8-azabicyclo[3.2.1]oct-8-yl]-6-fluoro-1,4-dihydro-4-oxo-3-quinolinecarboxylic acid] | 0.8 (≈ 2 µM) | 0.4 (≈ 1 µM) | 3.1 (≈ 7.76 µM) | 0.8 (≈ 2 µM) | 3.1 (≈ 7.76 µM) |  |  |  | 0.2 (≈ 0.501 µM) | 0.4 (≈ 1 µM) | 0.4 (≈ 1 µM) | 0.4 (≈ 1 µM) |  |  |  |  | 0.2 (≈ 0.501 µM) | 
10 | CCN[C@H]1C[C@H]2CC[C@@H](C1)N2c1cc2c(cc1F)c(=O)c(C(=O)O)cn2C1CC1 [Example 5f, 1-cyclopropyl-7-[3-endo(ethylamino)-8-azabicyclo[3.2.1]oct-8-yl]-6-fluoro-1,4-dihydro-4-oxo-3-quinolinecarboxylic acid] | 1.6 (≈ 4.01 µM) | 1.6 (≈ 4.01 µM) | 12.5 (≈ 31.3 µM) | 3.1 (≈ 7.76 µM) | 6.3 (≈ 15.8 µM) |  | 0.8 (≈ 2 µM) |  |  | 1.6 (≈ 4.01 µM) | 3.1 (≈ 7.76 µM) | 3.1 (≈ 7.76 µM) |  |  |  |  |  | 1.6 (≈ 4.01 µM)
11 | O=C(O)c1cn(C2CC2)c2cc(N3CC4CCCC3CN4)c(F)cc2c1=O (stereo not drawn) [Example 7, 1-Cyclopropyl-7-(6,8-diazabicyclo[3.2.2]non-6-yl)-6-fluoro-1,4-dihydro-4-oxo-3-quinolinecarboxylic acid] |  | 0.05 (≈ 0.135 µM) | 0.4 (≈ 1.08 µM) |  |  |  | 0.025 (≈ 0.0673 µM) |  | 0.05 (≈ 0.135 µM) | 0.05 (≈ 0.135 µM) | 0.1 (≈ 0.269 µM) | 0.1 (≈ 0.269 µM) |  | 0.05 (≈ 0.135 µM) | 0.1 (≈ 0.269 µM) | 0.4 (≈ 1.08 µM) |  | 
12 | O=C(O)c1cn(C2CC2)c2c(Cl)c(N3CC4CCCC3CN4)c(F)cc2c1=O (stereo not drawn) [Example 8, 8-Chloro-1-cyclopropyl-7-(6,8-diazabicyclo[3.2.2]non-6-yl)-6-fluoro-1,4-dihydro-4-oxo-3-quinolinecarboxylic acid] | 0.2 (≈ 0.493 µM) | 0.2 (≈ 0.493 µM) | 0.4 (≈ 0.986 µM) | 0.2 (≈ 0.493 µM) | 0.8 (≈ 1.97 µM) | 0.2 (≈ 0.493 µM) | 0.05 (≈ 0.123 µM) |  | 0.1 (≈ 0.246 µM) | 0.1 (≈ 0.246 µM) |  | 0.2 (≈ 0.493 µM) |  |  |  |  |  | 
